Experimental data taken from ChEMBL document CHEMBL4138191, “Organic arsenicals target thioredoxin reductase followed by oxidative stress and mitochondrial dysfunction resulting in apoptosis” (Eur J Med Chem, 2018).
The source made the active and inactive calls. The calls are words filed in the database; no cut-off is given here.

Key:
HL-60 [1] = experiment: Induction of mitochondrial membrane potential loss in human HL60 cells at 1 uM after 24 hrs by JC-1 staining-based flow cytometry; format: functional, cell-based
HL-60 [2] = experiment: Induction of cell death in human HL60 cells at 1 to 1.5 uM after 24 hrs in presence of antioxidant L-ascorbic acid by trypan blue assay; format: functional, cell-based
MCF7 [3] = experiment: Cytotoxicity against human MCF7 cells after 48 hrs by MTT assay; format: functional, cell-based; conditions: for IC50: MCF7, 48 h
HL-60 [4] = experiment: Induction of cell death in human HL60 cells at 1 to 1.5 uM after 24 hrs in presence of antioxidant vitamin E by trypan blue assay; format: functional, cell-based
GES1 [5] = experiment: Cytotoxicity against human GES-1 cells after 24 hrs by MTT assay; format: cell-based; conditions: for IC50: Homo sapiens, GES1, 24 h; for Activity: human, ges1, 24 h
HL-60 [6] = experiment: Induction of apoptosis in human HL60 cells assessed as DNA incision in bulk of cells at 0.75 to 1.5 uM after 24 hrs by Hoechst 33342 staining-based laser scanning confocal microscopic analysis; format: functional, cell-based
GES1 [7] = experiment: Cytotoxicity against human GES-1 cells after 48 hrs by MTT assay; format: cell-based; conditions: for IC50: Homo sapiens, GES1, 48 h; for Activity: human, ges1, 48 h
MCF7 [8] = experiment: Cytotoxicity against human MCF7 cells by MTT assay; format: functional, cell-based; conditions: TDE = time-dependent effect
HL-60 [9] = experiment: Induction of apoptosis in human HL60 cells assessed as nuclear shrinkage at 0.75 to 1.5 uM after 24 hrs by Hoechst 33342 staining-based laser scanning confocal microscopic analysis; format: functional, cell-based
HL-60 [10] = experiment: Cytotoxicity against human HL60 cells after 24 hrs by MTT assay; format: functional, cell-based; conditions: for IC50: HL-60, 24 h
[11] = target: T1, Glutathione reductase, mitochondrial (Homo sapiens) (UniProt P00390); experiment: Effect on glutathione reductase catalytic activity in human HL60 cells; format: cell-based
T1 sequence (whole entry): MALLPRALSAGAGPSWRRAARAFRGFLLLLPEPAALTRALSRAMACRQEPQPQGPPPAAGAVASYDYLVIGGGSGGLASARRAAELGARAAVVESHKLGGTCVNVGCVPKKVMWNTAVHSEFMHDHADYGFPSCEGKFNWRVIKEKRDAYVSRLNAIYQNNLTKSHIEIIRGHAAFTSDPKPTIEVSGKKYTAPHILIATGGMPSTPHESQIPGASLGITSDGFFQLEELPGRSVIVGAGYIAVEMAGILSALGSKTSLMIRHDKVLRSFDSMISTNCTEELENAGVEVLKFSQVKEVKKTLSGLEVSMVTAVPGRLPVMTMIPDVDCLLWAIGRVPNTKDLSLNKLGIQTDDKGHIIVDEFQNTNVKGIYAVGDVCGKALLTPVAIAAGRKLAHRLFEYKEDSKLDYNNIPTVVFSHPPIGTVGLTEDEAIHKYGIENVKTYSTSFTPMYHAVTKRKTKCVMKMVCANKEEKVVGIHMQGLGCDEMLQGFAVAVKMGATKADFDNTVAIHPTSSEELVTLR

HL-60 [12] = experiment: Induction of cell death in human HL60 cells at 1 to 1.5 uM after 24 hrs in presence of antioxidant NAC by trypan blue assay; format: functional, cell-based
HL-60 [13] = experiment: Induction of mitochondrial membrane potential loss in human HL60 cells at 1.5 uM after 24 hrs by JC-1 staining-based flow cytometry (reference value: 28.6%); format: functional
HL-60 [14] = experiment: Induction of apoptosis in human HL60 cells assessed as necrotic cells at 0.75 to 1.5 uM after 24 hrs by Annexin V-FITC/propidium iodide staining-based flow cytometry; format: functional
[15] = target: T2, Thioredoxin reductase 1, cytoplasmic (Homo sapiens) (UniProt Q16881); experiment: Inhibition of TrxR in human HL60 cells assessed as residual activity at 2 times IC50 using thioredoxin as substrate up to 24 hrs measured for 5 mins by UV-Vis spectrophotometric analysis relative to control; format: cell-based
T2 sequence (whole entry): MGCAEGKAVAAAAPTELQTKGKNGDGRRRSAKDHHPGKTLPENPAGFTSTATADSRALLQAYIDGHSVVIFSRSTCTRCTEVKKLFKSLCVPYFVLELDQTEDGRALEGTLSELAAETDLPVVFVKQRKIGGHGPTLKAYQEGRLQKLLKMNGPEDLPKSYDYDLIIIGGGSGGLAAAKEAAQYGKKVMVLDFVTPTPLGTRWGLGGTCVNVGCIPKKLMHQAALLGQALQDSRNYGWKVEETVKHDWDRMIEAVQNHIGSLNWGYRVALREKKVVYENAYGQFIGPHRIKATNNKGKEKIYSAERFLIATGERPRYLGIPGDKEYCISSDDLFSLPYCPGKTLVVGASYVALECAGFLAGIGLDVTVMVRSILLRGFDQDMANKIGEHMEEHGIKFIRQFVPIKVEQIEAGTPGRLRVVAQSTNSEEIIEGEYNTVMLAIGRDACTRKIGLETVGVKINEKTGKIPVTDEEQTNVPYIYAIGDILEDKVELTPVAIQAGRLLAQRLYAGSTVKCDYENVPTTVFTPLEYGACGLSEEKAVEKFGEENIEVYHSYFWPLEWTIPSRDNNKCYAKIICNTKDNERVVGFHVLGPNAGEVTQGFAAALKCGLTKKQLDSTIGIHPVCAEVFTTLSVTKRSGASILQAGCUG

SGC-7901 = experiment: Cytotoxicity against human SGC7901 cells after 48 hrs by MTT assay; format: functional, cell-based; conditions: for IC50: SGC-7901, 48 h
HL-60 [16] = experiment: Induction of cell death in human HL60 cells at 1 to 1.5 uM after 24 hrs in presence of antioxidant resveratrol by trypan blue assay; format: functional, cell-based
HL-60 [17] = experiment: Induction of apoptosis in human HL60 cells assessed as chromatin condensation at 0.75 to 1.5 uM after 24 hrs by Hoechst 33342 staining-based laser scanning confocal microscopic analysis; format: functional, cell-based
HL-60 [18] = experiment: Cytotoxicity against human HL60 cells by MTT assay; format: functional, cell-based; conditions: TDE = time-dependent effect
Liver [19] = experiment: Induction of mitochondrial dysfunction in Wistar rat liver assessed as swelling up to 30 uM for 60 mins; format: functional; conditions: mitochondria
HL-60 [20] = experiment: Induction of cell death in human HL60 cells at 1 to 1.5 uM after 24 hrs in presence of antioxidant lipoic acid by trypan blue assay; format: functional, cell-based
HL-60 [21] = experiment: Induction of ROS generation in human HL60 cells at 1.5 uM after 24 hrs by DCFH-DA or DHE staining-based fluorescence microscopic analysis; format: functional, cell-based
[22] = target: T2, Thioredoxin reductase 1, cytoplasmic (Homo sapiens); experiment: Inhibition of TrxR in human HL60 cells using thioredoxin as substrate up to 24 hrs measured for 5 mins by UV-Vis spectrophotometric analysis; format: cell-based
Homo sapiens = organism: Homo sapiens; experiment: Effect on glutathione peroxidase catalytic activity in human HL60 cells; format: cell-based
Liver [23] = experiment: Induction of mitochondrial dysfunction in Wistar rat liver assessed as swelling at 20 uM in presence of calcium related inhibitor ruthenium red; format: functional; conditions: mitochondria
HL-60 [24] = experiment: Induction of apoptosis in human HL60 cells assessed as condensed nuclei at 0.75 to 1.5 uM after 24 hrs by Hoechst 33342 staining-based laser scanning confocal microscopic analysis; format: functional, cell-based
HL-60 [25] = experiment: Induction of mitochondrial membrane potential loss in human HL60 cells at 1.5 uM after 24 hrs by JC-1 staining-based flow cytometry (reference value: 24.3%); format: functional

| SMILES | Activity (HL-60 [1]) | Activity (HL-60 [2]) | Activity (MCF7 [3]) | IC50 (MCF7 [3]) [µM] | Activity (HL-60 [4]) | IC50 (GES1 [5]) [µM] | Activity (GES1 [5]) | Activity (HL-60 [6]) | IC50 (GES1 [7]) [µM] | Activity (GES1 [7]) | Activity (MCF7 [8]) | Activity (HL-60 [9]) | Activity (HL-60 [10]) | IC50 (HL-60 [10]) [µM] | Activity [11] | Activity (HL-60 [12]) | Activity (HL-60 [14]) | Activity [15] [%] | Activity (SGC-7901) | IC50 (SGC-7901) [µM] | also measured |
| --- | --- | --- | --- | --- | --- | --- | --- | --- | --- | --- | --- | --- | --- | --- | --- | --- | --- | --- | --- | --- | --- |
| O=C(Nc1ccc([As]2SCCCS2)cc1)c1ccccc1O | Active | Active | Dose-dependent effect | 7.89 | Active | 13.4 | Dose-dependent effect | Active | 9.07 | Dose-dependent effect | Tde | Active | Dose-dependent effect | 0.84 | inactive | inactive | <=0.2% | 20 | Dose-dependent effect | 6.75 | Activity (HL-60 [13]): 71.8%; Activity (HL-60 [16]): Active; Activity (HL-60 [17]): Active; Activity (HL-60 [18]): Tde; Activity (Liver [19]): Active; Activity (HL-60 [20]): inactive; Activity (HL-60 [21]): Active; inhibition [22]: Dose-dependent effect; Activity (Homo sapiens): inactive; Activity (Liver [23]): inactive; Activity (HL-60 [24]): Active |
| Oc1ccccc1/C=N/c1ccc([As]2SCCCS2)cc1 | Active | Active | Dose-dependent effect | 2.44 | Active | 5.99 | Dose-dependent effect | Active | 3.55 | Dose-dependent effect | Tde | Active | Dose-dependent effect | 0.94 | inactive | inactive | <=0.2% | 20 | Dose-dependent effect | 4.05 | Activity (HL-60 [25]): 71%; Activity (HL-60 [16]): Active; Activity (HL-60 [17]): Active; Activity (HL-60 [18]): Tde; Activity (Liver [19]): Active; Activity (HL-60 [20]): inactive; Activity (HL-60 [21]): Active; inhibition [22]: Dose-dependent effect; Activity (Homo sapiens): inactive; Activity (Liver [23]): inactive; Activity (HL-60 [24]): Active |
